Test results: patent publication US20200282009A1, “METHODS OF TREATING DISEASES ASSOCIATED WITH VASCULAR SMOOTH MUSCLE CELL PROLIFERATION” (BioLineRx Ltd., priority 2017, published 2020)
[ ]: non-standard residue; d: D form. The star is where a group is joined. Benzoyl(4-F) = O=C(c1ccc(F)cc1)*; Cit = NC(=O)NCCC[C@H](N)C(=O)O

What was measured:
SK-N-BE(2) cells = experiment: Cell survival assay (PI staining, FACS); format: cell-based, human; conditions: BL-8040 0-20 μM or AMD3100 10 and 20 μM, 24 hours
Protocol: (§1) A total of 1×10^5 cells/mL were cultured in 24-well plates with […] RPMI 1640 medium supplemented with 10% FCS. 24 hours later, the medium was changed to RPMI 1640 supplemented with either 1% FCS, with BL-8040 or AMD3100 or ABT199. Then 24 hours later, the cells were harvested, washed, and stained with PI (Sigma). The number of live cells was counted and analyzed using FACS analysis.

Shy-SY5Y cells = experiment: Cell survival assay (PI staining, FACS); format: cell-based, human; conditions: BL-8040 0-20 μM or AMD3100 10 and 20 μM, 24 hours
Protocol: as §1

SK-N-BE(2)-CXCR4 cells = experiment: Cell survival assay (PI staining, FACS); format: cell-based, human; conditions: SK-N-BE(2)-CXCR4 vs native cell line; 0, 10 and 20 μM, 24 hours
Protocol: as §1
In order to stably overexpress CXCR4, SK-N-BE(2) cells were transduced with the lentiviral bicistronic vector harboring a CXCR4 expression cassette. This was done using a three-plasmid system: pHR′-CMVCXCR4-IRES-GFP-WPRE; envelope coding plasmid VSV-G and a packaging construct CMVDR8.91 according to previously published protocol (23). For transduction of SK-N-BE(2) cells, 1 ml of viral supernatant was used, which is equivalent to an m.o.i. of ˜9.

miR-15a, DLEU2 = experiment: Gene expression array of xenograft tumors; format: in vivo, NSG mice; conditions: treated vs un-treated tumors
Text: RNA was isolated from tumors and subjected to gene expression profiling using GeneChip human Gene 1.0 ST Array (Affymetrix). The gene expression values were extracted using the Partek Genomics Suite 6.6 software and, after thresholding and filtering procedures, were submitted to fold change and cluster analyses (Gene Expression Omnibus [GEO] GSE94426).
(§2) Human SK-N-BE(2) cells were orthotopically injected into the left adrenal gland of 6-8 weeks old NSG mice. A 27-gauge needle was introduced through the left adrenal fat pad and 5×10∧5 cells/20 μl PBS were inoculated to the adrenal gland. NSG mice were maintained under defined flora conditions at the Hebrew University Pathogen-Free Animal Facility. Tumor growth and volume were monitored bi-weekly by using T2-weighted MRI until tumors reached the ethical limit volume and mice were randomized to drug-treated or control mice. Mice in the treated group were subjected to 2 treatment protocols. In the first treatment protocol BL-8040 (400 μg) was injected daily, starting three days following inoculation, and was continued for 35 days. In the second treatment protocol mice were monitored for 21 days. As of day 7, mice were treated with a daily injection of BL-8040 (400 μg) for 14 consecutive days.

[1] = system: miR-15a, miR-16-1, BCL-2, CCND1; experiment: qPCR of RNA from xenograft tumors; format: in vivo, NSG mice; conditions: treated vs un-treated tumors
Protocol: Total RNA from various cell lines and mouse tissues was isolated using Trizol reagent (Invitrogen) according to the manufacture's protocol, followed by DNaseI treatment using the DNaseI Kit where needed (Ambion). The concentrations were measured by Nanodrop (ND spectrophotometer) and the integrity was analyzed by gel electrophoreses on 1% agarose gel.
cDNA was synthesized from 0.5-1 μg total RNA using the Quanta Biosciences qScript™ cDNA Synthesis Kit (95047-100) for mRNA analysis, and using the qScript™ microRNA cDNA Synthesis Kit (95107-100) for miRNAs analysis. Quantiative PCR (qPCR) of miRNAs and mRNA was performed using the CFX384, C1000 touch thermal cycler (Bio-Rad) and a SYBR Green PCR Kit: Quanta Cat. #84018 and #84071, respectively. The fold expression and statistical significance were calculated using the 2-ΔΔ Ct method. All experiments were performed in triplicate.
as §2

Ki67, Cyclin D1, BCL-2 = experiment: Immunohistochemistry of xenograft tumor sections; format: in vivo, NSG mice
Protocol: For histological analysis, tumor tissue was cut into […] sections, deparaffinized with xylene, and hydrated through graded ethanol. Endogenous peroxidase was blocked by incubation for 5 minutes in 3% H2O2. A 25-mM citrate buffer (pH 6.0) was used for antigen retrieval, cooked in a pressure cooker for 20 minutes, and left to cool for 30 minutes at room temperature. Slides were washed in Optimax (Pharmatrade) and incubated with primary Ab diluted in CAS-Block (Zymed Laboratories). For Ki67 1:100 (Thermo Scientific), for CXCR4 anti-human CXCR4 monoclonal antibody clone 12G5 1:100 (R&D), for CXCL12 monoclonal CXCL12 antibody 79018 (R&D), for BCL-2 monoclonal BCL-2 antibody clone 124 (cell marque) and for cyclinD1 monoclonal BCL-1 antibody clone sp4 (spring). Staining overnight at 4° C. For all stainings, a conjugated horseradish peroxidase secondary Ab anti mouse or anti rabbit (Envision; Dako) was used for 30 minutes and developing was done with diaminobenzidine for 5 minutes followed by counterstaining with hematoxylin. For ki67, BCL-2 and Cyclin D1, staining levels were quantified using the Image Pro Analyzer image analysis software.
as §2

[2] = system: BCL-2, cycD1, pERK in Shy-SY5Y cells; experiment: Western blot analysis of treated cells; format: cell-based, human; conditions: 20 μM, 24 hours
[3] = system: CXCR4-expressing malignancies; conditions: multiple myeloma, AML, CML, non-small cell lung cancer, metastatic breast cancer; cited from earlier work

With “4F-benzoyl-Arg-Arg-Nal-Cys-Tyr-Cit-Lys-DLys-Pro-Tyr-Arg-Cit-Cys-Arg-NH2 ({Benzoyl(4-F)}-RR[Nal]CY[Cit]K[dK]PYR[Cit]CR-NH2; not fully specified; printed as 4F-benzoyl-Arg-Arg-Nal-Cys-Tyr-Cit-Lys-DLys-Pro-Tyr-Arg-Cit-Cys-Arg-NH2; cysteine pairing not given here) [BL-8040]” the “cell viability (viable cells counted)” value (SK-N-BE(2) cells) was “decreased viability”, the “cell viability (viable cells counted)” value (Shy-SY5Y cells) was “decreased viability” and the “sensitivity to BL-8040 treatment in-vitro (viability)” value (SK-N-BE(2)-CXCR4 cells) was “increased sensitivity”. The “expression of miR-15a and its parent gene DLEU2 (gene chip array)” value (miR-15a, DLEU2) was “increased expression”, the “BCL-2 mRNA in tumors (qPCR)” value [1] was “significantly downregulated” and the “CCND1 mRNA in tumors (qPCR)” value [1] was “significantly downregulated”. For the same substance, the “miR-15a level in tumors (qPCR)” value ([1]; n=9) was “significantly elevated”, the “miR-16-1 level in tumors (qPCR)” value ([1]; n=9) was “significantly elevated” and the “Ki67 staining of tumor sections” value (Ki67, Cyclin D1, BCL-2; 400 μg daily for 14 days from day 7, compared to controls) was “reduced Ki67 staining”. For the same substance, the “reduction in Cyclin D1 expression, tumor sections (IHC)” value (Ki67, Cyclin D1, BCL-2; treated vs control sections, significant) was 56%, the “reduction in BCL-2 staining, tumor sections (IHC)” value (Ki67, Cyclin D1, BCL-2; treated vs control, staining weak, difference not significant) was 36% and the “BCL-2 protein (western blot)” value [2] was “reduction”. For the same substance, the “ERK phosphorylation (western blot)” value [2] was “decreased ERK phosphorylation”, the “cycD1 protein (western blot)” value [2] was “reduction” and the “effects on CXCR4-expressing malignancies” value [3] was “toxic effects”.
